{"source": "patent US7355074B2", "about": "“Compounds having aromatic rings and side-chain amide-functionality and a method for transporting monovalent anions across biological membranes using the same” (The University of Maryland, priority 2003, dated 2008)", "format_in_all_cases": "biochemical", "key": {"[1]": {"assay": "pH changes in liposomes experiencing a Cl- gradient (oligophenoxyacetamides)", "conditions": "NaCl-loaded liposomes in Na2SO4 buffer; for alkalinization of the vesicular compartment: equal amount (4 mol %)", "procedure": "FIG. 2B illustrates alkanization of the vesicular aqueous compartment upon application of compounds 1-6 to a suspension of NaCl-containing vesicles in isosmomolar Na2SO4 buffer. Concentration of compounds 1-6 in the vesicular suspension was 20 μm (4 mol %). Legend for traces denotes use of oligocompounds 1, 2, 3, 4, 5, 6.\n(§1) Liposome Preparation for Fluorimetric Assays. Egg yolk L-α-phosphatidylcholine (EYPC ethanol solution, […], 79 μmol) was dissolved in a CHCl3/MeOH mixture, the solution was evaporated under reduced pressure and the resulting thin film was dried under high vacuum for 2 h. The lipid film was hydrated in 1.2 mL of phosphate buffer (10 mM sodium phosphate, pH=6.4, 75-100 mM MnX, M=N^+, K^+, X=Cl^−, SO4^2−, n=1,2) containing 10 μM HPTS (pyranine, 8-hydroxypyrene-1,3,6-trisulfonic acid trisodium salt) for 40 min. During hydration, the suspension was submitted to 5 freeze-thaw cycle (liquid nitrogen, water at rt). The large multilamellar liposome suspension (1 mL) was submitted to high-pressure extrusion at rt (21 extrusions through a 0.1 μm polycarbonate membrane afforded a suspension of LUVs with an average diameter of 100 nm). The LUV suspension was separated from extravesicular dye by size exclusion chromatography (SEC) (stationary phase: Sephadex G-10, mobile phase: phosphate buffer) and diluted with the same phosphate buffer to give a stock solution with a lipid concentration of 11 mM (assuming 100% of lipid was incorporated into liposomes).\n(§2) Analysis of pH changes in the liposomes experiencing a CT gradient. a) Outwardly directed gradient of Cl:HPTS-loaded vesicles (100 μL of the stock solution), filled with a saline phosphate buffer (10 mM sodium phosphate, pH 6.4, 100 mM NaCl) were suspended in 1.9 mL of an isosmotic phosphate sulfate buffer (10 mM sodium phosphate, pH 6.0, 75 mM Na2SO4) and placed into a fluorimetric cell. The emission of HPTS at 510 nm was monitored with excitation wavelengths at 403 and 460 nm simultaneously. During the experiment, 20 μL of a 0-2 mM DMSO solution of the compound of interest was added through an injection port. Intravesicular pH values were obtained as described for pH-stat transport assays. At the end of experiment, the aqueous compartment of liposomes was equilibrated with extravesicular solution by lysis of liposomes with detergent (40 μL of 5% aqueous Triton X100). b) Inwardly directed gradient of Cl:HPTS-loaded vesicles (100 μL of the stock solution), filled with a isoosimomolar sulfate phosphate buffer (10 mM sodium phosphate, pH 6.0, 75 mM Na2SO4) were suspended in 1.9 mL of an isosmotic phosphate saline buffer (10 mM sodium phosphate, pH 6.4, 100 mM NaCl) and placed into a fluorimetric cell. Further analysis was conducted as described for the case of an outwardly directed gradient of […]. Analysis of the electrostatic potential on the surface of liposomes. LUVs (100 μL of stock solution, 100 mM KCl inside and outside or 75 mM Na2SO4 inside and outside) were suspended in 1.9 mL of 100 mM NaCl buffer containing 60 nM safranin O (a potential-sensitive dye). Safranin O emission was monitored at 580 nm with excitation at 520 nm. During the course of the experiment, 20 μL of a 0-0.12 mM DMSO solution of valinomycin or 0-2 mM of 3-8 DMSO solution was added. Experiments were completed by injection of 20 μL of 1 mM aqueous solution of the defect-inductive peptide melittin."}, "[2]": {"assay": "pH-stat fluorescent transport assay with oligophenoxyacetamides (HPTS-loaded liposomes)", "conditions": "100 mM NaCl inside and outside", "procedure": "FIGS. 1A and 1B are derived from of pH-stat fluorescent assays with oligophenoxyacetamide compounds 1-6 described herein. Suspensions of EYPC LUVs containing the pH sensitive dye pyranine (ex 405 nm and 460 nm em 510 nm) in a phosphate buffer were used (0.5 mM of lipid, 10 mM NanH3-nPO4 n=1, 2, pH 6.4 100 mM NaCl inside and outside) (A) illustrates initial pseudo-first order rate constants in the presence of 5 μm of ionophores 1-6 (1 mol % injection of 20 μl of 0.5 mM DMSO solution of 1-6 into 1.9 mL of vesicular suspension was followed by injection of 21 μl of 0.5 M NaOH and final lysis of liposomes with Triton X-100; (B) illustrates initial pseudo-first order rate constants assessed for various concentrations of oligomeric ionophores 2-6. The same experimental protocol as in (A) was used. Legend for traces denotes use of oligocompounds 2, 3, 4, 5, 6.\nas §1\npH-state transport assays. Typically, 100 μL of HPTS-loaded vesicles (stock solution) was suspended in 1.9 mL of the corresponding buffer and placed into a fluorimetric cell. The emission of HPTS at 510 nm was monitored with excitation wavelengths at 403 and 460 nm simultaneously. During the experiment, 20 μL of a 0-10 mM DMSO solution of the compounds of interest was added (through an injection port), followed by injection of 21 μL of 0.5 M aqueous NaOH. […] Maximal possible changes in dye emission were obtained at the end of each experiment by lysis of the liposomes with detergent (40 μL of 5% aqueous Triton X100). The final transport trace was obtained as a ratio of the emission intensities monitored at 460 and 403 nm and normalized to 100% of transport. Pseudo-first order rate constants were calculated from slopes of the plot of In([H^+ins]−[H^+out]) versus time, here [H^+ins] and [H^+out] are the intravesicular and extravesicular proton concentrations, respectively. The [H^+out] was assumed to remain constant over the course of the experiment, while [H^+ins] values were calculated for each point from the HPTS emission intensities according to the calibration equation pH=1.1684·log(Io/Il)+6.9807, where Io is the emission intensity with excitation at 460 nm and Il is emission intensity with excitation at 403 nm. The calibration was performed by measuring the HPTS emission intensities and the pH values of a […] HPTS solution in 10 mM phosphate buffer containing 100 mM NaCl (see FIG. s3). The absolute values for rate constants varied depending on the age of the vesicular solution and the actual stock solution of liposomes used."}, "[3]": {"assay": "liposome potential assay with safranin O", "conditions": "Na2SO4 vesicles in NaCl buffer (conditions of the trimer)", "procedure": "FIG. 3 illustrates liposome potential assays. Suspension of EYPC LUVs in phosphate buffer was used (10 m M Nan H3-n PO4, n=1, 2, pH 6.4, 100 m M KCl or 75 m M Na2 H3-n PO4, n=1, 2, pH 6.4, 100 m M KCl or 75 m M NA2 SO4 inside and 100 m M NaCl, 60 nM safranin O, ex 480 nm, em 520 nm, outside). Legend for trace denotes the formation of potential in: —KCl vesicles upon application of valinmycin·Na2SO4 vesicles upon application of 3, —KCl vesicles upon application of 3, —Na2SO4 vesicles upon application of valinomycin.\nas §2"}, "[4]": {"assay": "pH-assisted fluorimetric transport assay with calixarene amides (HPTS-loaded liposomes)", "conditions": "extravesicular Na, K or Cs chloride; ligand lipid ratios of up to 1:20", "procedure": "The ability of 1 and 2 to mediate ion flux across a lipid bilayer was studied fluorimetrically. A solution of 1 or 2 was added to a suspension of EYPC large unilamellar vesicles (LUVs) containing the pH-sensitive dye pyranine. An NaOH solution was added to the extravesicular buffer to create a gradient of approximately one pH unit. The resulting electrostatic potential, caused by proton efflux from the liposomes, can be compensated by cation influx or anion efflux, as mediated by the exogenous ligand. Ion transport across the membrane was signaled by the increase in relative fluorescence that accompanied the rise in intravesicular pH.\nLiposome Preparation. EYPC HPTS-Containing LUVs, egg yolk 1-α-phosphatidylcholine (EYPC, 60 mg, […]) was dissolved in a CHCl3MeOH mixture, the solution was evaporated under reduced pressure, and the resulting thin film was dried under high vacuum for 2 h. The lipid film was hydrated in 1.2 mL of phosphate buffer (10 mM sodium phosphage, pH=6.4, 75-100 mM MX, M=Na^+, K^+, Cs^+, X=[…], SO4^2−) containing 10 μM HPTS (pyranine 8-hydroxypyrene-1,3,6-trisulfonic acid trisodium salt) for 2 h. The LUV suspension (1 mL) was submitted to high-pressure extrusion at room temperature (2) extrusions through a 0.1 μM polycarbonate membrane afforded LUVs with a diameter of 100 nm). The LUV suspension was separated from extravesicular dye by size exclusion chromatography (SEC) stationary phase: Sephadex G-10, mobile phase:phosphate buffer) and diluted with the same phosphate buffer to give a stock solution with a lipid concentration of 11 mM (assuming 100% of lipid was incorporated into liposomes).\nFluorimetric Transport Assays. pH-Assisted Transport Assays. Typically, 100 μL of HPTS-loaded vesicles (stock solution) was suspended in 1.85 mL of the corresponding buffer and placed into a fluorimetric cell. HPTS emission at 510 nm was monitored with excitation wavelengths at 403 and 460 nm simultaneously. During the experiment, 20 μL of a 0-10 mM THF solution of the compound of interest was added through an injection port, followed by injection of 21 μL of 0.5 M aqueous NaOH. Addition of the NaOH caused a pH increase of approximately 1 pH unit in the extravesicular buffer. Maximal changes in dye emission were obtained at the end of each experiment by lysis of the liposomes with detergent (40 μL of 5% aqueous Triton x100). The final transport trace was obtained as a ratio of the emission intensities monitored at 460 and 403 nm and normalized to 100% of transport."}}}
{"smiles": "CCCCNC(=O)COc1ccccc1Cc1cccc(Cc2cccc(Cc3cccc(Cc4cccc(Cc5ccccc5OCC(=O)NCCCC)c4OCC(=O)NCCCC)c3OCC(=O)NCCCC)c2OCC(=O)NCCCC)c1OCC(=O)NCCCC", "note": "[hexamer 6, Hexakis-(N-butyl-2-phenoxyacetamide)]", "values": [{"measurement": "alkalinization of the vesicular compartment", "setting": "[1]", "result": "Alkanization of the vesicular compartment was observed"}]}
{"smiles": "CCCCNC(=O)COc1ccccc1Cc1cccc(Cc2cccc(Cc3cccc(Cc4ccccc4OCC(=O)NCCCC)c3OCC(=O)NCCCC)c2OCC(=O)NCCCC)c1OCC(=O)NCCCC", "note": "[pentamer 5, Pentakis-(N-butyl-2-phenoxyacetamide)]", "values": [{"measurement": "alkalinization of the vesicular compartment", "setting": "[1]", "result": "Alkanization of the vesicular compartment was observed"}]}
{"smiles": "CCCCNC(=O)COc1ccccc1Cc1ccccc1OCC(=O)NCCCC", "note": "[Dimer 2, bis-(N-butyl-2-phenoxyacetamide)]", "values": [{"measurement": "transport activity", "setting": "[2]; below 4 mol % (20 μm)", "result": "moderate transport activity"}, {"measurement": "alkalinization of the vesicular compartment", "setting": "[1]", "result": "Alkanization of the vesicular compartment was observed"}]}
{"smiles": "CC(C)[C@@H]1NC(=O)[C@H](C)OC(=O)[C@@H](C(C)C)NC(=O)[C@@H](C(C)C)OC(=O)[C@H](C(C)C)NC(=O)[C@H](C)OC(=O)[C@@H](C(C)C)NC(=O)[C@@H](C(C)C)OC(=O)[C@H](C(C)C)NC(=O)[C@H](C)OC(=O)[C@@H](C(C)C)NC(=O)[C@@H](C(C)C)OC1=O", "note": "[valinomycin, reference compound]", "values": [{"measurement": "ability to create a transmembrane potential", "setting": "[3]", "result": "cannot create a potential"}]}
{"smiles": "CNC(=O)COc1c2cccc1Cc1cccc(c1OCC(=O)NC)Cc1cccc(c1OCC(=O)NC)Cc1cccc(c1OCC(=O)NC)C2", "note": "[Calix[4]arene tetramethylamide 1, Calix[4]arene tetramethylamide]", "values": [{"measurement": "transport activity", "setting": "[4]", "result": "little transport activity"}]}
{"smiles": "CCCCNC(=O)COc1ccccc1Cc1cccc(Cc2cccc(Cc3ccccc3OCC(=O)NCCCC)c2OCC(=O)NCCCC)c1OCC(=O)NCCCC", "note": "[tetramer 4, Tetrakis-(N-butyl-2-phenoxyacetamide)]", "values": [{"measurement": "relative transport activity within the series 1-6", "setting": "[2]", "result": "generally more effective than pentamer 5 and hexamer 6"}, {"measurement": "pH gradient generated", "setting": "[1]; 4 mol %", "result": "the same pH gradient"}, {"measurement": "time to reach the pH gradient", "setting": "[1]; 4 mol %", "result": 4.5, "unit": "minutes"}, {"measurement": "relative ability to alter the pH in liposomes under a Cl− gradient", "setting": "[1]", "result": "less active than trimer 3"}]}
